For orientation: DC50 means the concentration at which degradation of the target reaches its halfway point. Usually Dmax stands for the greatest extent of degradation seen.

Where two headings read alike, the source gives them in different places.

For this experiment, the target named is T1, BRM (Homo sapiens, UniProt P51531).
T1 construct: In-Cell Western Screen of BRM Degradation in SW1573 Cells; endogenous in cells; host or cells: SW1573
Description: In-cell Western screen of BRM degradation in SW1573 cells (Dmax and DC50). The format is cell-based. The gist of the method: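 SW1573 cells were treated overnight (18-20 hours) with compound at 0.1% final DMSO. They were then PFA-fixed, permeabilised with Triton X-100 and immunostained with 800 nm/680 nm secondary antibodies. BRM signal was quantified by LI-COR in-cell Western imaging to derive Dmax and DC50.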

Where [1] appears, read: BRM degradation, SW1573 cells, read-out: DC50.
Where [2] appears, read: BRM degradation, SW1573 cells, when tested at the top concentration of between 0.3 and 10 μM, read-out: Dmax (%) (% degraded).
The mark [3] stands for this setting: BRM degradation, SW1573 cells, tested at the top concentration of between 0.3 and 10 μM, read-out: Dmax (%) (% degraded).
The mark [4] stands for this setting: target protein degradation, read-out: BRM DC50.
Where [5] appears, read: SW1573, % degraded, when tested at the top concentration of between 0.3 and 10 μM, read-out: BRM Dmax (%).

T1 sequence (P51531 whole entry): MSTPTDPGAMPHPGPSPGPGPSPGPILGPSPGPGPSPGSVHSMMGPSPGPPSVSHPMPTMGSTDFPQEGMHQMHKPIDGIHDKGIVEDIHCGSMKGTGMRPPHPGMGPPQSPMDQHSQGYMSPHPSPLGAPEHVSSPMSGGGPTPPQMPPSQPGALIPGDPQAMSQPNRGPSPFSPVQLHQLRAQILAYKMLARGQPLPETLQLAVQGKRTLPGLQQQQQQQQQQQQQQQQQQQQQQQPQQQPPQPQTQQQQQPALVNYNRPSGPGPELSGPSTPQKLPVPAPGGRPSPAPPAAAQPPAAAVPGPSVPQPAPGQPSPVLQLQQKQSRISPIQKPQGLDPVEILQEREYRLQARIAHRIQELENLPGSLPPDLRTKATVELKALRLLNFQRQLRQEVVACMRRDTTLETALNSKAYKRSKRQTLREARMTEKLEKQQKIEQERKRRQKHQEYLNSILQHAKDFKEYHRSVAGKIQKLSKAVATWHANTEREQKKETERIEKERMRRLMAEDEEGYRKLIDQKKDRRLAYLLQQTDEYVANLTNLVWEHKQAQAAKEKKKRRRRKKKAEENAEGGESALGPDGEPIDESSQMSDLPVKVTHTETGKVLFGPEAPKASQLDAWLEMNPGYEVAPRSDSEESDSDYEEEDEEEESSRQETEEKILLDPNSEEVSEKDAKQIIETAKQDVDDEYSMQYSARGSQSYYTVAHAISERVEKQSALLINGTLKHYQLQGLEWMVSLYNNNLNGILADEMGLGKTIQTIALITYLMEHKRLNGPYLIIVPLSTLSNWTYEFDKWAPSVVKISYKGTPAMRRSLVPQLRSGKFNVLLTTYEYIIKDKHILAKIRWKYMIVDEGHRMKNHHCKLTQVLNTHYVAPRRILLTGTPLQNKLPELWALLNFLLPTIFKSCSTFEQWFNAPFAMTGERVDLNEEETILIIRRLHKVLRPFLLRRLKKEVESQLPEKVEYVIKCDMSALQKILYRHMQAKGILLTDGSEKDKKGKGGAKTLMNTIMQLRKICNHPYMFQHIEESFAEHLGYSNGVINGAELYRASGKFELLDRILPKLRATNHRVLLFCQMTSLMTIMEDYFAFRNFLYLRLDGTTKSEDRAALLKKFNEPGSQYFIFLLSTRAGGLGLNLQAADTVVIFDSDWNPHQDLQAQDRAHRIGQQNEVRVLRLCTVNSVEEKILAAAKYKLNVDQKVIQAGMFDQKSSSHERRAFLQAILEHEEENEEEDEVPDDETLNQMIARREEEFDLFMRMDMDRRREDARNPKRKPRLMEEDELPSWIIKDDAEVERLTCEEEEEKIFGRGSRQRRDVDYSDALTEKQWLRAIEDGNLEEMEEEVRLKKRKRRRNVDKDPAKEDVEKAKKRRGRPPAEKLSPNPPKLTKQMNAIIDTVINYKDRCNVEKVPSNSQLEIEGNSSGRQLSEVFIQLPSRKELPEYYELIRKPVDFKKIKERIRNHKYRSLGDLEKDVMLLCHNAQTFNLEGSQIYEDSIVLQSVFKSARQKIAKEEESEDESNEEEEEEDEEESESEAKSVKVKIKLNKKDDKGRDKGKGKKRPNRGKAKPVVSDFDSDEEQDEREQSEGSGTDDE

For the compound `Cc1ncsc1-c1ccc([C@H](C)NC(=O)[C@@H]2C[C@@H](O)CN2C(=O)[C@@H](c2cc(N3CCC4(CC3)CN(CC3CCN(C[C@H]5C[C@H](Oc6cc(N7C8CCC7CN(c7cc(-c9ccccc9O)nnc7N)C8)ccn6)C5)CC3)C4)no2)C(C)C)cc1` [compound 695, (2S,4R)-1-((2R)-2-(3-(2-((1-(((1r,3r)-3-((4-(3-(3-amino-6-(2-hydroxyphenyl)pyridazin-4-yl)-3,8-diazabicyclo[3.2.1]octan-8-yl)pyridin-2-yl)oxy)cyclobutyl)methyl)piperidin-4-yl)methyl)-2,7-diazaspiro[3.5]nonan-7-yl)isoxazol-5-yl)-3-methylbutanoyl)-4-hydroxy-N-((S)-1-(4-(4-methylthiazol-5-yl)phenyl)ethyl)pyrrolidine-2-carboxamide], under setting [1], the DC50 was less than 2.5 nM. For the same compound, where the note is “BRM degradation, SW1573 cells, read-out: Dmax (% degraded)”, the Dmax is more than 75%.

As for `Cc1ncsc1-c1ccc(CNC(=O)[C@@H]2C[C@@H](O)CN2C(=O)[C@H](c2cc(CCCOCCOCCOCCn3cc(-c4cc(-c5ccccc5O)nnc4N)cn3)no2)C(C)C)cc1` [compound 23, (2S,4R)-1-[(2S)-2-[3-(3-[2-[2-(2-[4-[3-amino-6-(2-hydroxyphenyl)pyridazin-4-yl]-1H-pyrazol-1-yl]ethoxy)ethoxy]ethoxy]propyl)-1,2-oxazol-5-yl]-3-methylbutanoyl]-4-hydroxy-N-[[4-(4-methyl-1,3-thiazol-5-yl)phenyl]methyl]pyrrolidine-2-carboxamide], under setting [1], the DC50 was more than 30 nM. For the same compound, the Dmax under setting [2] is more than 75%. For `CC(C)[C@@H](C(=O)N1C[C@H](O)C[C@H]1C(=O)N[C@@H](C)c1ccc(-c2c(Cl)cnn2C)cc1)c1cc(OCCN2CCN(CCOc3cc(N4C5CCC4CN(c4cc(-c6ccccc6O)nnc4N)C5)ccn3)CC2)no1` [compound 283, (2S,4R)-1-((2R)-2-(3-(2-(4-(2-((4-(3-(3-amino-6-(2-hydroxyphenyl)pyridazin-4-yl)-3,8-diazabicyclo[3.2.1]octan-8-yl)pyridin-2-yl)oxy)ethyl)piperazin-1-yl)ethoxy)isoxazol-5-yl)-3-methylbutanoyl)-N-((S)-1-(4-(4-chloro-1-methyl-1H-pyrazol-5-yl)phenyl)ethyl)-4-hydroxypyrrolidine-2-carboxamide], under setting [1], the DC50 was less than 2.5 nM. The Dmax under setting [3] is more than 75%. `Cc1ncsc1-c1ccc([C@H](C)NC(=O)[C@@H]2C[C@@H](O)CN2C(=O)[C@@H](c2cc(OCCN3C[C@H]4C[C@@H]3CN4CCOc3cc(N4C5CCC4CN(c4cc(-c6ccccc6O)nnc4N)C5)ccn3)no2)C(C)C)cc1` [compound 136, (2S,4R)-1-((2R)-2-(3-(2-((1R,4R)-5-(2-((4-(3-(3-amino-6-(2-hydroxyphenyl)pyridazin-4-yl)-3,8-diazabicyclo[3.2.1]octan-8-yl)pyridin-2-yl)oxy)ethyl)-2,5-diazabicyclo[2.2.1]heptan-2-yl)ethoxy)isoxazol-5-yl)-3-methylbutanoyl)-4-hydroxy-N-((S)-1-(4-(4-methylthiazol-5-yl)phenyl)ethyl)pyrrolidine-2-carboxamide]: the DC50 under setting [1] was less than 2.5 nM. Besides, the Dmax under setting [2] is more than 75%.

As to `Cc1ncoc1-c1ccc([C@H](C)NC(=O)[C@@H]2C[C@@H](O)CN2C(=O)[C@@H](c2cc(OCCN3CCN(CCOc4cc(N5C6CCC5CN(c5cc(-c7ccccc7O)nnc5N)C6)ccn4)CC3)no2)C(C)C)cc1` [compound 300, (2S,4R)-1-((2R)-2-(3-(2-(4-(2-((4-(3-(3-amino-6-(2-hydroxyphenyl)pyridazin-4-yl)-3,8-diazabicyclo[3.2.1]octan-8-yl)pyridin-2-yl)oxy)ethyl)piperazin-1-yl)ethoxy)isoxazol-5-yl)-3-methylbutanoyl)-4-hydroxy-N-((S)-1-(4-(4-methyloxazol-5-yl)phenyl)ethyl)pyrrolidine-2-carboxamide], the DC50 under setting [1] was less than 2.5 nM. For the same compound, the Dmax under setting [3] was more than 75%. `Cc1ncsc1-c1ccc([C@H](C)NC(=O)[C@@H]2C[C@@H](O)CN2C(=O)[C@H](c2cc(N3CCC(OC4CCN(C[C@H]5C[C@H](Oc6cc(N7C8CCC7CN(c7cc(-c9ccccc9O)nnc7N)C8)ccn6)C5)CC4)CC3)no2)C(C)C)cn1` [compound 475, (2S,4R)-1-((2S)-2-(3-(4-((1-(((1r,3r)-3-((4-(3-(3-amino-6-(2-hydroxyphenyl)pyridazin-4-yl)-3,8-diazabicyclo[3.2.1]octan-8-yl)pyridin-2-yl)oxy)cyclobutyl)methyl)piperidin-4-yl)oxy)piperidin-1-yl)isoxazol-5-yl)-3-methylbutanoyl)-4-hydroxy-N-((S)-1-(6-(4-methylthiazol-5-yl)pyridin-3-yl)ethyl)pyrrolidine-2-carboxamide]: the DC50 under setting [4] is more than 30 nM. `CC(C)[C@H](C(=O)N1C[C@H](O)C[C@H]1C(=O)N[C@@H](C)c1ccc(C#N)cc1)c1cc(OCCN2CCC(O[C@H]3C[C@H](Oc4cc(N5C6CCC5CN(c5cc(-c7ccccc7O)nnc5N)C6)ccn4)C3)CC2)no1` [compound 204, (2S,4R)-1-((2S)-2-(3-(2-(4-((1r,3S)-3-((4-(3-(3-amino-6-(2-hydroxyphenyl)pyridazin-4-yl)-3,8-diazabicyclo[3.2.1]octan-8-yl)pyridin-2-yl)oxy)cyclobutoxy)piperidin-1-yl)ethoxy)isoxazol-5-yl)-3-methylbutanoyl)-N-((S)-1-(4-cyanophenyl)ethyl)-4-hydroxypyrrolidine-2-carboxamide]: the DC50 under setting [1] is more than 30 nM. Besides, the Dmax under setting [3] is more than 75%. With `Cc1ncsc1-c1ccc([C@H](C)NC(=O)[C@@H]2C[C@@H](O)CN2C(=O)[C@H](c2cc(OCCC3CCN(C(=O)[C@H]4C[C@H](CN5CCC([C@@H](C)n6cc(-c7cc(-c8ccccc8O)nnc7N)cn6)CC5)C4)CC3)no2)C(C)C)cc1` [compound 455, (2S,4R)-1-((S)-2-(3-(2-(1-((1R,3S)-3-((4-((R)-1-(4-(3-amino-6-(2-hydroxyphenyl)pyridazin-4-yl)-1H-pyrazol-1-yl)ethyl)piperidin-1-yl)methyl)cyclobutane-1-carbonyl)piperidin-4-yl)ethoxy)isoxazol-5-yl)-3-methylbutanoyl)-4-hydroxy-N-((S)-1-(4-(4-methylthiazol-5-yl)phenyl)ethyl)pyrrolidine-2-carboxamide], the maximal degradation (Dmax) under setting [5] was more than 75%. Also, the DC50 under setting [4] is less than 2.5 nM. For `Cc1ncsc1-c1ccc([C@H](C)NC(=O)[C@@H]2C[C@@H](O)CN2C(=O)[C@H](c2cc(OCCN3CCC(O[C@H]4C[C@H](Oc5cc(N6C7CCC6CN(c6cc(-c8ccccc8O)nnc6N)C7)ccn5)C4)CC3)no2)C(C)C)nc1` [compound 367, (2S,4R)-1-((2S)-2-(3-(2-(4-((1r,3S)-3-((4-(3-(3-amino-6-(2-hydroxyphenyl)pyridazin-4-yl)-3,8-diazabicyclo[3.2.1]octan-8-yl)pyridin-2-yl)oxy)cyclobutoxy)piperidin-1-yl)ethoxy)isoxazol-5-yl)-3-methylbutanoyl)-4-hydroxy-N-((S)-1-(5-(4-methylthiazol-5-yl)pyridin-2-yl)ethyl)pyrrolidine-2-carboxamide] the same measures were more than 75% and more than 30 nM.

The record behind these values is patent US12539292B2, “BRM targeting compounds and associated methods of use” (Arvinas Operations, Inc., priority 2018, dated 2026).
